Data published in patent US9687479B2, “Multisubstituted aromatic compounds as serine protease inhibitors” (VERSEON CORPORATION, priority 2013, dated 2017).
Like-named read-outs stand apart in the source and are kept apart here.

Target: Human thrombin (Homo sapiens (Human), UniProt P00734)
Test: Thrombin protease activity inhibition assay (chromogenic substrate S-2238)
Format: biochemical
Description: The thrombin activity reported herein (e.g., Table A) was obtained as follows. […] Thrombin was assayed in buffer containing 0.05 M Tris (pH 7.4), 0.015 M NaCl and 0.01% PEG-8000. The final concentration of enzyme used was 3 nM thrombin. […] All assays were performed in 96-well microtiter plates at room temperature (RT). […] Inhibitor IC50 values were determined by adding test compound as ten point, three-fold serial dilutions in buffer solution, as known in the art. The plate was read at 10 minutes after substrate addition. The IC50 was calculated by plotting the percent (%) inhibition against compound concentration and fitting the data to a constrained four parameter sigmoidal curve, as known in the art.

[1] = 3 nM thrombin, 125 μM S-2238, 10 min pre-incubation, RT

| SMILES | IC50 [1] [nM] | IC50 [nM] |
| --- | --- | --- |
| Cn1cccc(-c2cc(NCc3ccc(Cl)s3)n(C(=O)c3cccc4c3OCCO4)n2)c1=O [Cmpd 120, 3-(5-[(5-chlorothiophen-2-yl)methyl]amino-1-[(2,3-dihydro-1,4-benzodioxin-5-yl)carbonyl]-1H-pyrazol-3-yl)-1-methyl-1,2-dihydropyridin-2-one] | < 100 | – |
| COc1ccccc1C(=O)n1nc(-c2cccn(CCc3ccccc3)c2=O)cc1NCc1ccc(Cl)s1 [Cmpd 134, 3-(5-[(5-chlorothiophen-2-yl)methyl]amino-1-[(2-methoxyphenyl)carbonyl]-1H-pyrazol-3-yl)-1-(2-phenylethyl)-1,2-dihydropyridin-2-one] | < 100 | – |
| O=C(c1cccc2c1OCCO2)n1nc(-c2cccn(Cc3ccncc3)c2=O)cc1NCc1ccc(Cl)s1 [Cmpd 115, 3-(5-[(5-chlorothiophen-2-yl)methyl]amino-1-[(2,3-dihydro-1,4-benzodioxin-5-yl)carbonyl]-1H-pyrazol-3-yl)-1-(pyridin-4-ylmethyl)-1,2-dihydropyridin-2-one] | < 100 | – |
| O=C(c1cccs1)n1nc(-c2cccn(CCN3CCOCC3)c2=O)cc1NCc1ccc(Cl)s1 [Cmpd 192, 3-(5-[(5-chlorothiophen-2-yl)methyl]amino-1-[(thiophen-2-yl)carbonyl]-1H-pyrazol-3-yl)-1-[2-(morpholin-4-yl)ethyl]-1,2-dihydropyridin-2-one] | > 100000 | – |
| CC(C)(CO)C(=O)n1nc(-c2cccn(Cc3cccs3)c2=O)cc1NCc1ccc(Cl)s1 [Cmpd 95, 3-(5-[(5-chlorothiophen-2-yl)methyl]amino-1-(3-hydroxy-2,2-dimethylpropanoyl)-1H-pyrazol-3-yl)-1-(thiophen-2-ylmethyl)-1,2-dihydropyridin-2-one] | < 100 | – |
| O=C(c1ccoc1)n1nc(-c2cccn(Cc3cccc4ccccc34)c2=O)cc1NCc1ccc(Cl)s1 [Cmpd 174, 3-(5-[(5-chlorothiophen-2-yl)methyl]amino-1-[(furan-3-yl)carbonyl]-1H-pyrazol-3-yl)-1-(naphthalen-1-ylmethyl)-1,2-dihydropyridin-2-one] | < 100 | – |
| COc1ccccc1C(=O)n1nc(-c2cccn(Cc3ccsc3)c2=O)cc1NCc1ccc(Cl)s1 [Cmpd 144, 3-(5-[(5-chlorothiophen-2-yl)methyl]amino-1-[(2-methoxyphenyl)carbonyl]-1H-pyrazol-3-yl)-1-(thiophen-3-ylmethyl)-1,2-dihydropyridin-2-one] | < 100 | – |
| O=C(c1ccco1)n1nc(-c2cccn(Cc3ccccn3)c2=O)cc1NCc1ccc(Cl)s1 [Cmpd 164, 3-(5-[(5-chlorothiophen-2-yl)methyl]amino-1-[(furan-2-yl)carbonyl]-1H-pyrazol-3-yl)-1-(pyridin-2-ylmethyl)-1,2-dihydropyridin-2-one] | < 100 | – |
| COc1ccccc1C(=O)n1nc(-c2cccn(C)c2=O)cc1NCc1ccc(Cl)s1 [Cmpd 147, 3-(5-[(5-chlorothiophen-2-yl)methyl]amino-1-[(2-methoxyphenyl)carbonyl]-1H-pyrazol-3-yl)-1-methyl-1,2-dihydropyridin-2-one] | < 100 | – |
| O=C(c1cccs1)n1nc(-c2cccn(Cc3ccsc3)c2=O)cc1NCc1ccc(Cl)s1 [Cmpd 191, 3-(5-[(5-chlorothiophen-2-yl)methyl]amino-1-[(thiophen-2-yl)carbonyl]-1H-pyrazol-3-yl)-1-(thiophen-3-ylmethyl)-1,2-dihydropyridin-2-one] | < 100 | – |
| O=C(c1ccco1)n1nc(-c2cccn(Cc3cccs3)c2=O)cc1NCc1ccc(Cl)s1 [Cmpd 168, 3-(5-[(5-chlorothiophen-2-yl)methyl]amino-1-[(furan-2-yl)carbonyl]-1H-pyrazol-3-yl)-1-(thiophen-2-ylmethyl)-1,2-dihydropyridin-2-one] | < 100 | – |
| O=C(c1ccco1)n1nc(-c2cccn(Cc3ccco3)c2=O)cc1NCc1ccc(Cl)s1 [Cmpd 161, 3-(5-[(5-chlorothiophen-2-yl)methyl]amino-1-[(furan-2-yl)carbonyl]-1H-pyrazol-3-yl)-1-(furan-2-ylmethyl)-1,2-dihydropyridin-2-one] | < 100 | – |
| CC1(C(=O)n2nc(-c3cccn(Cc4cccnn4)c3=O)cc2NCc2ccc(Cl)s2)CCOCC1 [Cmpd 152, 3-(5-[(5-chlorothiophen-2-yl)methyl]amino-1-[(4-methyloxan-4-yl)carbonyl]-1H-pyrazol-3-yl)-1-(pyridazin-3-ylmethyl)-1,2-dihydropyridin-2-one] | < 100 | – |
| CC(C)(C)C(=O)n1nc(-c2cccn(Cc3ccccc3)c2=O)cc1NCc1ccc(Cl)s1 [Cmpd 43, 1-benzyl-3-(5-[(5-chlorothiophen-2-yl)methyl]amino-1-(2,2-dimethylpropanoyl)-1H-pyrazol-3-yl)-1,2-dihydropyridin-2-one] | < 100 | – |
| COCCn1cccc(-c2cc(NCc3ccc(Cl)s3)n(C(=O)C(C)(C)C)n2)c1=O [Cmpd 75, 3-(5-[(5-chlorothiophen-2-yl)methyl]amino-1-(2,2-dimethylpropanoyl)-1H-pyrazol-3-yl)-1-(2-methoxyethyl)-1,2-dihydropyridin-2-one] | < 100 | – |
| CC1(C(=O)n2nc(-c3cccn(CCN4CCOCC4)c3=O)cc2NCc2ccc(Cl)s2)CCOCC1 [Cmpd 159, 3-(5-[(5-chlorothiophen-2-yl)methyl]amino-1-[(4-methyloxan-4-yl)carbonyl]-1H-pyrazol-3-yl)-1-[2-(morpholin-4-yl)ethyl]-1,2-dihydropyridin-2-one] | > 100000 | – |
| O=C(c1ccccc1)n1nc(-c2cccn(Cc3cccnn3)c2=O)cc1NCc1ccc(Cl)s1 [Cmpd 65, 3-(1-benzoyl-5-[(5-chlorothiophen-2-yl)methyl]amino-1H-pyrazol-3-yl)-1-(pyridazin-3-ylmethyl)-1,2-dihydropyridin-2-one] | < 100 | – |
| COc1ccc(C(=O)n2nc(-c3cccn(Cc4cccnn4)c3=O)cc2NCc2ccc(Cl)s2)c(OC)c1 [Cmpd 124, 3-(5-[(5-chlorothiophen-2-yl)methyl]amino-1-[(2,4-dimethoxyphenyl)carbonyl]-1H-pyrazol-3-yl)-1-(pyridazin-3-ylmethyl)-1,2-dihydropyridin-2-one] | < 100 | – |
| COCC(C)(C)C(=O)n1nc(-c2cccn(Cc3ccccc3)c2=O)cc1NCc1ccc(Cl)s1 [Cmpd 44, 1-benzyl-3-(5-[(5-chlorothiophen-2-yl)methyl]amino-1-(3-methoxy-2,2-dimethylpropanoyl)-1H-pyrazol-3-yl)-1,2-dihydropyridin-2-one] | < 100 | – |
| O=C(c1ccoc1)n1nc(-c2cccn(Cc3ncccn3)c2=O)cc1NCc1ccc(Cl)s1 [Cmpd 178, 3-(5-[(5-chlorothiophen-2-yl)methyl]amino-1-[(furan-3-yl)carbonyl]-1H-pyrazol-3-yl)-1-(pyrimidin-2-ylmethyl)-1,2-dihydropyridin-2-one] | < 100 | – |
| CC1(C(=O)n2nc(-c3cccn(Cc4ccoc4)c3=O)cc2NCc2ccc(Cl)s2)CCOCC1 [Cmpd 151, 3-(5-[(5-chlorothiophen-2-yl)methyl]amino-1-[(4-methyloxan-4-yl)carbonyl]-1H-pyrazol-3-yl)-1-(furan-3-ylmethyl)-1,2-dihydropyridin-2-one] | < 100 | – |
| Nc1cc(-c2ccc[nH]c2=O)n[nH]1 [Cmpd 1, 3-(5-amino-1H-pyrazol-3-yl)-1,2-dihydropyridin-2-one] | – | > 100000 |

Now from value to compound, other results behind:

| IC50 [1] [nM] | SMILES | IC50 [nM] |
| --- | --- | --- |
| > 100000 | O=c1c(-c2cc(NCc3ccc(Cl)s3)[nH]n2)cccn1Cc1ncccn1 [Cmpd 230, 3-(5-[(5-chlorothiophen-2-yl)methyl]amino-1H-pyrazol-3-yl)-1-(pyrimidin-2-ylmethyl)-1,2-dihydropyridin-2-one] | – |
| 10000 to 100000 | COCCn1cccc(-c2cc(NCc3ccc(Cl)s3)n[nH]2)c1=O [Cmpd 220, 3-(5-[(5-chlorothiophen-2-yl)methyl]amino-1H-pyrazol-3-yl)-1-(2-methoxyethyl)-1,2-dihydropyridin-2-one] | – |
| < 100 | O=C(c1ccccc1Cl)n1nc(-c2cccn(Cc3cccs3)c2=O)cc1NCc1ccc(Cl)s1 [Cmpd 250, 3-1-[(2-chlorophenyl)carbonyl]-5-[(5-chlorothiophen-2-yl)methyl]amino-1H-pyrazol-3-yl-1-(thiophen-2-ylmethyl)-1,2-dihydropyridin-2-one] | – |
| 1000 to 10000 | O=c1c(-c2cc(NCc3ccc(Cl)s3)[nH]n2)cccn1Cc1ccoc1 [Cmpd 223, 3-(5-[(5-chlorothiophen-2-yl)methyl]amino-1H-pyrazol-3-yl)-1-(furan-3-ylmethyl)-1,2-dihydropyridin-2-one] | – |
| > 100000 | O=c1c(-c2cc(NCc3ccc(Cl)s3)[nH]n2)cccn1Cc1cccc2ccccc12 [Cmpd 224, 3-(5-[(5-chlorothiophen-2-yl)methyl]amino-1H-pyrazol-3-yl)-1-(naphthalen-1-ylmethyl)-1,2-dihydropyridin-2-one] | – |
| > 100000 | O=c1c(-c2cc(NCc3ccc(Cl)s3)[nH]n2)cccn1Cc1ccc2ccccc2c1 [Cmpd 225, 3-(5-[(5-chlorothiophen-2-yl)methyl]amino-1H-pyrazol-3-yl)-1-(naphthalen-2-ylmethyl)-1,2-dihydropyridin-2-one] | – |
| 1000 to 10000 | O=c1c(-c2cc(NCc3ccc(Cl)s3)n[nH]2)cccn1Cc1cccs1 [Cmpd 231, 3-(5-[(5-chlorothiophen-2-yl)methyl]amino-1H-pyrazol-3-yl)-1-(thiophen-2-ylmethyl)-1,2-dihydropyridin-2-one] | – |
| 1000 to 10000 | Nc1cc(-c2ccc[nH]c2=O)nn1C(=O)c1ccco1 [Cmpd 255, 3-5-amino-1-[(furan-2-yl)carbonyl]-1H-pyrazol-3-yl-1,2-dihydropyridin-2-one] | – |
| < 100 | O=C(c1ccc(N2CCOCC2)cc1)n1nc(-c2cccn(Cc3cccs3)c2=O)cc1NCc1ccc(Cl)s1 [Cmpd 216, 3-(5-[(5-chlorothiophen-2-yl)methyl]amino-1-[4-(morpholin-4-yl)phenyl]carbonyl-1H-pyrazol-3-yl)-1-(thiophen-2-ylmethyl)-1,2-dihydropyridin-2-one] | – |
